In patent US20080109040A1, “METHOD OF TREATING ARRHYTHMIAS” (priority 2002, published 2008):
Like-named read-outs stand apart in the source and are kept apart here. Marks after values point to notes of the source that are not given here.

How the values were obtained:
anesthetized dog = assay: QT prolongation and arrhythmia induction in anesthetized dog with AV block and phenylephrine challenge; details: for Arrhythmia occurrence: individual dogs; for Mean ERP LV / Mean ERP RY: sot 8 + 4
Method: Dogs were pretreated with Atravet (0.07 mg/kg sc) and then 15 minutes later anesthetized with ketamine (5.3 mg/kg iv) and valium (0.25 mg/kg iv) followed by isoflurane (1-2%), intubated and subjected to mechanical ventilation. They were then subjected to AV block with radiofrequency ablation. A median sternotomy was performed and catheters were inserted into a femoral artery for blood pressure (BP) recording and into both femoral veins for infusion of test drugs. Bipolar electrodes were inserted into both ventricles for programmed stimulation determination of refractory periods (extrastimulus technique), as well as for evaluation of QT interval and QRS duration at various controlled basic cycle lengths (BCLs). TdP was induced by challenges of phenylephrine, which were given as bolus intravenous doses of 10, 20, 30, 40 and 50 μg/kg. After each dose, the ECG was monitored continuously to detect arrhythmias. […] Test drug effects were evaluated as per protocols below.
Data are presented as the mean ±S.E.M. Statistical comparisons were made with Student's t test. A 2-tailed probability<0.05 was taken to indicate statistical significance. In data tables, * denotes P<0.05, **P<0.01.
Group 2 (6 dogs): Five dogs received ranolazine as a 0.5 mg/kg iv load followed by a first, a second and a third continuous iv infusion of 1.0, 3.0 and 15 mg/kg/hr, respectively. One dog received ranolazine as a 1.5 mg/kg iv load followed by infusions of 15 and 30 mg/kg/hr. […] The phenylephrine challenges were then given, with all doses given at each drug infusion rate, and any arrhythmias monitor.

[1] = system: guinea pig ventricular myocytes; assay: Action potential duration, EADs and triggered activity in guinea pig ventricular myocytes
Method: Single ventricular myocytes were isolated from the hearts of adult, male guinea pigs (Harlan). In brief, the hearts were perfused with warm (35° C.) and oxygenated solutions in the following order: 1) Tyrode solution containing (in mmol/L) 140 NaCl, 4.6 KCl, 1.8 CaCl2, 1.1 MgSO4, 10 glucose and 5 HEPES, pH 7.4, for 5 minutes; 2) Ca^2+-free solution containing (in mmol/L) 100 NaCl, 30 KCl, 2 MgSO4, 10 glucose, 5 HEPES, 20 taurine, and 5 pyruvate, pH 7.4, for 5 minutes; and 3) Ca^2+-free solution containing sollagenase (120 units/ml) and albumin (2 mg/ml), for 20 minutes. At the end of the perfusion, the ventricles were removed, minced, and gently shaken for 10 minutes in solution #3. Isolated cells were harvested from the cell suspension.
Myocytes were placed into a recording chamber and superfused with Tyrode solution at 35° C. Drugs were applied via the superfusate. Action potentials were measured using glass microelectrodes filled with a solution containing (in mmol/L) 120 K-aspartate, 20 KCl, 1 MgCl2, 4 Na2ATP, 0.1 Na3GTP, 10 glucose, 1 EGTA and 10 HEPES (pH 7.2). Microelectrode resistance was 1-3 MΩ. An Axopatch-200 amplifier, a DigiData-1200A interface and pCLAMP6 software were used to perform electrophysiological measurements. Action potentials were induced by 5-ms depolarizing pulses applied at various frequencies as indicated. The duration of action potential was measured at 50% (APD50) and 90% (APD90) repolarization.
1) Ventricular myocytes were electrically stimulated at a frequency of 0.5, 1 or 2 Hz. Each myocyte was treated with 3, 10 and 30 μmol/L ranolazine. The effect of ranolazine on action potential duration at each pacing frequency was determined from 4 myocytes.
2) Action potentials were elicited at a frequency of 0.25 Hz, and the effect of ranolazine (10 μmol/L) on action potential duration was examined in the presence of 5 μmol/L quinidine. Experiments were performed on 4 myocytes.
Following the procedures and protocols of Example 21, guinea pig ventricular myocytes were electrically stimulated in the presence of ranolazine either alone or in the presence of ATX II [a sea anemone toxin known to mimic LQT3 syndrome by slowing Na^+-channel inactivation from the open state and thereby increasing the peak and late Na^+ current (INa) of cardiomyocytes]. ATXII is known to induce early afterdepolarizations (EADs) and triggered activity and ventricular tachycardia.
Action potentials were recorded using the whole-cell patch-electrode technique. Ventricular monophasic action potentials and electrograms were recorded from isolated hearts.
The ventricular APD of guinea pigs isolated myocytes and hearts was measured, respectively, at 50% (APD50) and 90% (MAPD90) repolarization.

[2] = system: guinea pig isolated heart; assay: K-H buffer perfused guinea pig isolated heart: MAP duration, EADs and VT
Text: To study the effect of ranolazine on ATXII induced MAP (monophasic action potential) duration prolongation, EADs and ventricular tachyarrhythmia (VT), the K—H buffer perfused guinea pig isolated heart model was used.
Multiple EADs and sustained depolarizations were frequently observed.

For `CC(C)NCC(O)c1ccc(NS(C)(=O)=O)cc1` (racemic) [sotalol, reference compound], which Arrhythmia occurrence (anesthetized dog; Sot 8 + 4 plus phenylephrine 10 μg/kg, — = none) is on record?
Its Arrhythmia occurrence is “death”.

And the Arrhythmia occurrence (anesthetized dog; Sot 8 + 4 plus phenylephrine 30 μg/kg)?
Its Arrhythmia occurrence is “death”.

What about the Arrhythmia occurrence (anesthetized dog; Sot 8 + 4 plus phenylephrine 40 μg/kg) of the same molecule?
The Arrhythmia occurrence was “tdp VF death”.

What about the Arrhythmia occurrence (anesthetized dog; Sot 8 + 4 plus phenylephrine 50 μg/kg) of the same molecule?
Its Arrhythmia occurrence is “death”.

And the “Effect on QRS duration” value (anesthetized dog; dog, in vivo)?
The value was “did not affect”.

And the “Mean ERP LV” value (anesthetized dog; BCL 300)?
The value was 201.25 ± 18.75 ms.

And the “Mean ERP RY” value (anesthetized dog; BCL 300)?
The value was 181.33 ± 8.21** ms.

And the “Mean ERP LV” value (anesthetized dog; BCL 400)?
The value was 226.25 ± 21.25 ms.

What about the “Mean ERP RY” value (anesthetized dog; BCL 400) of the same molecule?
The value was 195.67 ± 7.53** ms.

What about the “Mean ERP LV” value (anesthetized dog; BCL 600) of the same molecule?
The value was 262.50 ± 27.5* ms.

What about the “Mean ERP RY” value (anesthetized dog; BCL 600) of the same molecule?
Its value is 223.50 ± 9.07** ms.

What about the “Mean ERP LV” value (anesthetized dog; BCL 1000) of the same molecule?
Its value is 286.25 ± 16.25* ms.

And the “Mean ERP RY” value (anesthetized dog; BCL 1000)?
The value was 255.50 ± 9.56** ms.

What about the “Death from torsade de pointes degenerating to ventricular fibrillation” value (anesthetized dog; sotalol infusion and a phenylephrine bolus) of the same molecule?
Its value is “All the dogs eventually died”.

Which results are given for `CCS(=O)(=O)N(C)[C@H]1c2cc(C#N)ccc2OC(C)(C)[C@@H]1O` [293B, reference compound]?
Induction of EADs [1]: induced EADs in the presence, but not in the absence, of ATX-II; Increase of APD50 ([1]; 293B 30 μmol/L, absence of ATX-II): 40±7%; Increase of APD50 ([1]; 293B 30 μmol/L, presence of ATX-II): 202±59%; Increase of MAPD90 ([2]; 293B 1 μmol/L alone): 6.3±0.2%; Increase of MAPD90 ([2]; 293B applied with ATX-II): 31.6±0.1%

How did the “Increase of APD50” value ([1]; E-4031 1 μmol/L, absence of ATX-II) turn out when `Cc1cccc(CCN2CCC(C(=O)c3ccc(NS(C)(=O)=O)cc3)CC2)n1` [E-4031, reference compound] was run?
Its value is 11±2%.

What about the “Increase of APD50” value ([1]; E-4031 1 μmol/L, presence of ATX-II) of the same molecule?
Its value is 104±41%.

And the “Increase of MAPD90” value ([2]; E-4031 1 μmol/L alone)?
The value was 30.1±0.1%.

And the “Increase of MAPD90” value ([2]; E-4031 applied with ATX-II)?
Its value is 127.1±0.4%.

For `C=C[C@H]1C[N@@]2CC[C@H]1C[C@@H]2[C@@H](O)c1ccnc2ccc(OC)cc12` [quinidine, reference compound], which “Effect on duration of action potential” value ([1]; quinidine 5 μmol/L, 0.25 Hz) is on record?
Its value is “increased the duration of action potential”.

“ATXII: a sea anemone toxin known to mimic LQT3 syndrome by slowing Na+-channel inactivation from the open state [reference compound]” was tested. Which “Increase of APD50” value ([1]; ATX-II 3 nmol/L alone) did it give?
The value was 6±2%.

And the “Induction of EADs” value ([1]; ATX-II 10-20 nmol/L)?
The value was “induced EADs in all cells”.

What about the “APD50 in the presence of ATX-II” value ([1]; ATX-II 10-20 nmol/L, n=24) of the same molecule?
The value was 1,148±49 ms.

And the “Induction of EADs” value ([1]; ATXII 10-40 nmol/L)?
The value was “induced EADs in all cells”.

And the “APD50 in the presence of ATXII” value ([1]; ATXII 10-40 nmol/L, n=20)?
Its value is 1,154±61 ms.

What about the “Increase of MAPD90” value ([2]; ATX-II 7 nmol/L alone) of the same molecule?
The value was 32±0.1%.

And the “Isolated hearts with EADs and (polymorphic) VT” value ([2]; ATXII 10-20 nM)?
Its value is 10/14.

And the “Prolongation of MAPD90” value ([2]; ATXII 10-20 nM, 4 hearts without rapid ventricular arrhythmia)?
The value was 6%.

And the “Isolated hearts with EADs and (polymorphic) VT” value ([2]; ATXII 10-20 nM, listed as ATX-II)?
Its value is 10 of 14.
